The values below are quoted from earlier work in patent US11642339B2 (THERAVANCE BIOPHARMA R&D IP, LLC, priority 2017, dated 2023).

Data set [1] deals with patients on daily therapy. Conditions: long-term use; cited from earlier work.
In data set [2] the test system is patients with functional dyspepsia. The settings on record: Japan, placebo 35%; cited from earlier work.
The test system is the same in data set [3]. The settings on record: after 4 weeks of treatment; placebo 12.7%; cited from earlier work.

Molecules are shown by their SMILES.

For `CCN(CC)CCNC(=O)c1cc(Cl)c(N)cc1OC` [metoclopramide], the “patients with adverse CNS effects” value in data set [1] was “up to 30%”.

For `COc1cc(O)c(C(=O)Nc2nc(C(=O)NCCN(C(C)C)C(C)C)cs2)cc1OC` [Acotiamide], the “patients with symptom improvement” value in data set [2] is reported as 52%.

Take `O=C1[C@@H]2[C@H]3CC[C@H](C3)[C@@H]2C(=O)N1CCCCN1CCN(c2ncccn2)CC1` [tandospirone]: the response rate in data set [3] was 31.5%.
